From patent US12194039B2, “Methods of treating heart failure by administering omecamtiv mecarbil” (Cytokinetics, Inc., priority 2020, dated 2025)
Like-named read-outs stand apart in the source and are kept apart here.

Tested on: patients with HFrEF by ejection fraction quartile
Format: in vivo, human
Set-up: Change from baseline in KCCQ Total Symptom Score, least square mean / KCCQ Total Symptom Score Inpatient, Treatment Difference, least squares mean / KCCQ Total Symptom Score Outpatient, Treatment Difference, least squares mean / KCCQ Total Symptom Score, Treatment Difference, least squares mean: scale not given here
Details: for Adjudicated First Major Cardiac Ischemic Events, % / Adjudicated First Stroke, % / Adverse Event: Ventricular Tachyarrhythmia, % / All-cause Death (%) / All-cause Death Rate / All-cause Death n/N / Any treatment Emergent Serious Adverse Events, % / Positively Adjudicated Myocardial Infarction, % / Serious Adverse Event: Ventricular Arrhythmia Requiring Treatment, % / 1st HF Hospitalization (%) / 1st HF Hospitalization Rate / 1st HF Hospitalization n/N / First HF Event (%) / First HF Event Rate / First HF Event n/N / Primary Outcome (%) / Primary Outcome Rate / Primary Outcome n/N / Total HF Events, Events / Total HF Events, Rate / Total HF Hospitalizations, Events / Total HF Hospitalizations, Rate: OM group; for Adjudicated First Major Cardiac Ischemic Events, Relative Risk / Adjudicated First Stroke, Relative Risk / Adverse Event: Ventricular Tachyarrhythmia, Relative Risk / All-cause Death ARR / All-cause Death HR (95% CI) / Any treatment Emergent Serious Adverse Events, Relative Risk / Positively Adjudicated Myocardial Infarction, Relative Risk / Serious Adverse Event: Ventricular Arrhythmia Requiring Treatment, Relative Risk / 1st HF Hospitalization ARR / 1st HF Hospitalization HR (95% CI) / First HF Event ARR / First HF Event HR (95% CI) / Primary Outcome ARR / Primary Outcome HR (95% CI) / Total HF Events, ARR / Total HF Events, Ratio (95% CI) / Total HF Hospitalizations, ARR / Total HF Hospitalizations, Ratio (95% CI): OM vs placebo
Description: Continuous variables were summarized via means and standard deviations or medians and interquartile ranges, as appropriate. Categorical variables are summarized with counts and percentages. Tests of trend across categories were conducted via linear regression, Cuzick's non-parametric trend test, and Chi-squared tests of trend, respectively. Treatment effects on continuous outcomes were assessed via linear regression models adjusted for the corresponding baseline value of the parameter of interest. Survival analyses were conducted using Poisson regression models to estimate incidence rates, rate differences, and rate ratios and Cox proportional hazards models to estimate hazard ratios. […] To allow for potentially non-linear associations between ejection fraction and time-to-event outcomes, restricted cubic splines were utilized in the Poisson regression models with 3 knots. All analyses were conducted using STATA 16 (College Station, Tex.). P-values <0.05 were considered statistically significant. Due to the exploratory nature of these analyses, no adjustments were made for multiple comparisons.
Within each randomization setting subgroup least squares mean is from the mixed model which includes baseline total symptom score value, region, baseline eGFR, scheduled visit, treatment group and interaction of treatment with scheduled visit as covariates. Influence of Ejection Fraction on the Treatment Effect of Omecamtiv Mecarbil

[1] = EF 23-28%, baseline to Week 24, vs placebo
[2] = EF 29-32%, baseline to Week 24, vs placebo

For `COC(=O)N1CCN(Cc2cccc(NC(=O)Nc3ccc(C)nc3)c2F)CC1` [omecamtiv mecarbil], the “Adjudicated First Major Cardiac Ischemic Events, %” value (EF22%) was 4.8%, the “Adjudicated First Stroke, %” value (EF22%) was 1.5% and the “Adverse Event: Ventricular Tachyarrhythmia, %” value (EF22%) was 9.8%. The “All-cause Death (%)” value (EF22%) was “(29%)”, the “All-cause Death Rate” value (EF22%) was 17.0 per 100 patient years and the “All-cause Death n/N” value (EF22%) was 329/1127. For the same compound, the “Any treatment Emergent Serious Adverse Events, %” value (EF22%) was “(60.7%)”, the “Positively Adjudicated Myocardial Infarction, %” value (EF22%) was 3.3% and the “Serious Adverse Event: Ventricular Arrhythmia Requiring Treatment, %” value (EF22%) was 3.6%. For the same compound, the “Adjudicated First Major Cardiac Ischemic Events, Relative Risk” value (EF22%) was “RR: 1.19”, the “Adjudicated First Stroke, Relative Risk” value (EF22%) was “RR: 0.65” and the “Adverse Event: Ventricular Tachyarrhythmia, Relative Risk” value (EF22%) was “RR: 1.00”. The “All-cause Death ARR” value (EF22%) was 0.8 per 100 patient years, the “All-cause Death HR (95% CI)” value (EF22%) was 0.98 (0.84, 1.14) and the “Any treatment Emergent Serious Adverse Events, Relative Risk” value (EF22%) was “RR: 0.94”. For the same compound, the “Positively Adjudicated Myocardial Infarction, Relative Risk” value (EF22%) was “RR: 1.22”, the “Serious Adverse Event: Ventricular Arrhythmia Requiring Treatment, Relative Risk” value (EF22%) was “RR: 0.88” and the “1st HF Hospitalization (%)” value (EF 23-28%) was “(27%)”. The “1st HF Hospitalization Rate” value (EF 23-28%) was 17.8 per 100 patient years, the “1st HF Hospitalization n/N” value (EF 23-28%) was 295/1086 and the “Adjudicated First Major Cardiac Ischemic Events, %” value (EF 23-28%) was 4.3%. The “Adjudicated First Stroke, %” value (EF 23-28%) was 1.8%, the “Adverse Event: Ventricular Tachyarrhythmia, %” value (EF 23-28%) was 8.3% and the “All-cause Death (%)” value (EF 23-28%) was “(26%)”. The “All-cause Death Rate” value (EF 23-28%) was 14.4 per 100 patient years, the “All-cause Death n/N” value (EF 23-28%) was 278/1086 and the “Any treatment Emergent Serious Adverse Events, %” value (EF 23-28%) was “(56.9%)”. The “First HF Event (%)” value (EF 23-28%) was “(28%)”, the “First HF Event Rate” value (EF 23-28%) was 18.5 per 100 patient years and the “First HF Event n/N” value (EF 23-28%) was 304/1086. For the same compound, the “Positively Adjudicated Myocardial Infarction, %” value (EF 23-28%) was 2.7%, the “Primary Outcome (%)” value (EF 23-28%) was “(36%)” and the “Primary Outcome Rate” value (EF 23-28%) was 24.0 per 100 patient years. The “Primary Outcome n/N” value (EF 23-28%) was 393/1086, the “Serious Adverse Event: Ventricular Arrhythmia Requiring Treatment, %” value (EF 23-28%) was 3.2% and the “Total HF Events, Events” value (EF 23-28%) was 577. The “Total HF Events, Rate” value (EF 23-28%) was 30.0 per 100 pt-yrs, the “Total HF Hospitalizations, Events” value (EF 23-28%) was 541 and the “Total HF Hospitalizations, Rate” value (EF 23-28%) was 28.1 per 100 pt-yrs. For the same compound, the “1st HF Hospitalization ARR” value (EF 23-28%) was 1.8 per 100 patient years, the “1st HF Hospitalization HR (95% CI)” value (EF 23-28%) was 0.86 (0.74, 1.01) and the “Adjudicated First Major Cardiac Ischemic Events, Relative Risk” value (EF 23-28%) was 1.00. The “Adjudicated First Stroke, Relative Risk” value (EF 23-28%) was 0.53, the “Adverse Event: Ventricular Tachyarrhythmia, Relative Risk” value (EF 23-28%) was 0.98 and the “All-cause Death ARR” value (EF 23-28%) was 1.4 per 100 patient years. The “All-cause Death HR (95% CI)” value (EF 23-28%) was 0.89 (0.76, 1.05), the “Any treatment Emergent Serious Adverse Events, Relative Risk” value (EF 23-28%) was 0.96 and the “First HF Event ARR” value (EF 23-28%) was 2.4 per 100 patient years. The “First HF Event HR (95% CI)” value (EF 23-28%) was 0.84 (0.72, 0.98), the “Positively Adjudicated Myocardial Infarction, Relative Risk” value (EF 23-28%) was 0.89 and the “Primary Outcome ARR” value (EF 23-28%) was 3.3 per 100 patient years. The “Primary Outcome HR (95% CI)” value (EF 23-28%) was 0.85 (0.74, 0.97), the “Serious Adverse Event: Ventricular Arrhythmia Requiring Treatment, Relative Risk” value (EF 23-28%) was 1.04 and the “Total HF Events, ARR” value (EF 23-28%) was 4.0 per 100 pt-yrs. For the same compound, the “Total HF Events, Ratio (95% CI)” value (EF 23-28%) was 0.83 (0.68, 1.01), the “Total HF Hospitalizations, ARR” value (EF 23-28%) was 3.2 per 100 pt-yrs and the “Total HF Hospitalizations, Ratio (95% CI)” value (EF 23-28%) was 0.84 (0.69, 1.02). The “Creatinine, Treatment Difference” value [1] was 0.01 mg/dL, the “Heart rate, Treatment Difference” value [1] was −1.7 bpm and the “KCCQ Total Symptom Score, Treatment Difference, least squares mean” value [1] was −0.6. For the same compound, the “NT-proBNP (Ratio)” value [1] was 0.90, the “Potassium, Treatment Difference” value [1] was -0.01 mmol/L and the “Systolic BP, Treatment Difference” value [1] was −0.6 mmHg. The “Troponin I (Ratio)” value [1] was 1.29, the “Troponin I, Treatment Difference (95% CI)” value [1] was 4 (3, 5) ng/L and the “1st HF Hospitalization (%)” value (EF 29-32%) was “(27%)”. The “1st HF Hospitalization Rate” value (EF 29-32%) was 17.6 per 100 patient years, the “1st HF Hospitalization n/N” value (EF 29-32%) was 279/1015 and the “Adjudicated First Major Cardiac Ischemic Events, %” value (EF 29-32%) was 4.1%. The “Adjudicated First Stroke, %” value (EF 29-32%) was 2.4%, the “Adverse Event: Ventricular Tachyarrhythmia, %” value (EF 29-32%) was 6.9% and the “All-cause Death (%)” value (EF 29-32%) was “(26%)”. For the same compound, the “All-cause Death Rate” value (EF 29-32%) was 13.9 per 100 patient years, the “All-cause Death n/N” value (EF 29-32%) was 260/1015 and the “Any treatment Emergent Serious Adverse Events, %” value (EF 29-32%) was “(57.3%)”. For the same compound, the “First HF Event (%)” value (EF 29-32%) was “(28%)”, the “First HF Event Rate” value (EF 29-32%) was 18.2 per 100 patient years and the “First HF Event n/N” value (EF 29-32%) was 286/1015. The “Positively Adjudicated Myocardial Infarction, %” value (EF 29-32%) was 2.2%, the “Primary Outcome (%)” value (EF 29-32%) was “(37%)” and the “Primary Outcome Rate” value (EF 29-32%) was 23.8 per 100 patient years. The “Primary Outcome n/N” value (EF 29-32%) was 375/1015, the “Serious Adverse Event: Ventricular Arrhythmia Requiring Treatment, %” value (EF 29-32%) was 2.1% and the “Total HF Events, Events” value (EF 29-32%) was 506. For the same compound, the “Total HF Events, Rate” value (EF 29-32%) was 27.1 per 100 pt-yrs, the “Total HF Hospitalizations, Events” value (EF 29-32%) was 472 and the “Total HF Hospitalizations, Rate” value (EF 29-32%) was 25.3 per 100 pt-yrs. The “1st HF Hospitalization ARR” value (EF 29-32%) was −2.1 per 100 patient years, the “1st HF Hospitalization HR (95% CI)” value (EF 29-32%) was 1.19 (1.01, 1.42) and the “Adjudicated First Major Cardiac Ischemic Events, Relative Risk” value (EF 29-32%) was 1.08. The “Adjudicated First Stroke, Relative Risk” value (EF 29-32%) was 0.83, the “Adverse Event: Ventricular Tachyarrhythmia, Relative Risk” value (EF 29-32%) was 0.96 and the “All-cause Death ARR” value (EF 29-32%) was −2.0 per 100 patient years. The “All-cause Death HR (95% CI)” value (EF 29-32%) was 1.19 (0.99, 1.42), the “Any treatment Emergent Serious Adverse Events, Relative Risk” value (EF 29-32%) was 0.99 and the “First HF Event ARR” value (EF 29-32%) was −1.3 per 100 patient years. For the same compound, the “First HF Event HR (95% CI)” value (EF 29-32%) was 1.13 (0.96, 1.33), the “Positively Adjudicated Myocardial Infarction, Relative Risk” value (EF 29-32%) was 1.00 and the “Primary Outcome ARR” value (EF 29-32%) was −1.4 per 100 patient years. The “Primary Outcome HR (95% CI)” value (EF 29-32%) was 1.11 (0.96, 1.28), the “Serious Adverse Event: Ventricular Arrhythmia Requiring Treatment, Relative Risk” value (EF 29-32%) was 0.78 and the “Total HF Events, ARR” value (EF 29-32%) was 0.6 per 100 pt-yrs. For the same compound, the “Total HF Events, Ratio (95% CI)” value (EF 29-32%) was 1.14 (0.93, 1.40), the “Total HF Hospitalizations, ARR” value (EF 29-32%) was −0.1 per 100 pt-yrs and the “Total HF Hospitalizations, Ratio (95% CI)” value (EF 29-32%) was 1.18 (0.96, 1.46). For the same compound, the “Creatinine, Treatment Difference” value [2] was 0.01 mg/dL, the “Heart rate, Treatment Difference” value [2] was −1.9 bpm and the “KCCQ Total Symptom Score, Treatment Difference, least squares mean” value [2] was “+0.3”. The “NT-proBNP (Ratio)” value [2] was 0.95, the “Potassium, Treatment Difference” value [2] was -0.01 mmol/L and the “Systolic BP, Treatment Difference” value [2] was −0.6 mmHg.
